Results reported in PubChem BioAssay (NCI).
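The concentration for 50% growth inhibition is given as GI50. Definition used: TGI = concentration required for complete inhibition of growth.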

Key:
Experiment in all cases: growth of human tumour cells (NCI), 384-well format
ACHN renal = test system: ACHN renal
KM12 colon = test system: KM12 colon
HCT-116 colon = test system: HCT-116 colon
SNB-75 CNS = test system: SNB-75 CNS
OVCAR-3 ovarian = test system: OVCAR-3 ovarian
NCI/ADR-RES ovarian = test system: NCI/ADR-RES ovarian
CCRF-CEM leukemia = test system: CCRF-CEM leukemia
BT-549 breast = test system: BT-549 breast
SW-620 colon = test system: SW-620 colon
MDA-MB-468 breast = test system: MDA-MB-468 breast
SF-295 CNS = test system: SF-295 CNS
UACC-257 melanoma = test system: UACC-257 melanoma
PC-3 prostate = test system: PC-3 prostate
DU-145 prostate = test system: DU-145 prostate
UO-31 renal = test system: UO-31 renal
SN12C renal = test system: SN12C renal
HOP-92 NSCLC = test system: HOP-92 NSCLC
HT29 colon = test system: HT29 colon
IGROV1 ovarian = test system: IGROV1 ovarian
OVCAR-4 ovarian = test system: OVCAR-4 ovarian
K-562 leukemia = test system: K-562 leukemia
HCT-15 colon = test system: HCT-15 colon
HL-60(TB) leukemia = test system: HL-60(TB) leukemia
M14 melanoma = test system: M14 melanoma
LOX IMVI melanoma = test system: LOX IMVI melanoma
SK-OV-3 ovarian = test system: SK-OV-3 ovarian
TK-10 renal = test system: TK-10 renal
A549 NSCLC = test system: A549 NSCLC
HS 578T breast = test system: HS 578T breast
HCC-2998 colon = test system: HCC-2998 colon
SK-MEL-28 melanoma = test system: SK-MEL-28 melanoma
OVCAR-8 ovarian = test system: OVCAR-8 ovarian
COLO 205 colon = test system: COLO 205 colon
MDA-MB-231 breast = test system: MDA-MB-231 breast
SNB-19 CNS = test system: SNB-19 CNS
NCI-H23 lung = test system: NCI-H23 lung
NCI-H322M lung = test system: NCI-H322M lung
EKVX NSCLC = test system: EKVX NSCLC
SF-268 CNS = test system: SF-268 CNS
A498 renal = test system: A498 renal
HOP-62 NSCLC = test system: HOP-62 NSCLC
CAKI-1 renal = test system: CAKI-1 renal
MOLT-4 leukemia = test system: MOLT-4 leukemia
SR leukemia = test system: SR leukemia
RXF 393 renal = test system: RXF 393 renal
NCI-H226 lung = test system: NCI-H226 lung
MALME-3M melanoma = test system: MALME-3M melanoma
SF-539 CNS = test system: SF-539 CNS

O=C(O)C1(Cc2cccc(Nc3nccs3)n2)CCC(Oc2cccc(Cl)c2F)CC1 (stereo unspecified)
GI50 (ACHN renal): 14.6 µM
TGI (ACHN renal): 48.9 µM
GI50 (KM12 colon): 0.124 µM
TGI (KM12 colon): 16.1 µM
GI50 (HCT-116 colon): 0.0796 µM
TGI (HCT-116 colon): 17.6 µM
GI50 (SNB-75 CNS): 0.972 µM
TGI (SNB-75 CNS): 28.5 µM
GI50 (OVCAR-3 ovarian): 0.41 µM
TGI (OVCAR-3 ovarian): 18.2 µM
GI50 (NCI/ADR-RES ovarian): 0.329 µM
TGI (NCI/ADR-RES ovarian): 13.3 µM
GI50 (CCRF-CEM leukemia): 0.249 µM
TGI (CCRF-CEM leukemia): 1.1 µM
GI50 (BT-549 breast): 0.573 µM
TGI (BT-549 breast): 22.3 µM
GI50 (SW-620 colon): 1.2 µM
TGI (SW-620 colon): 19.9 µM
GI50 (MDA-MB-468 breast): 0.122 µM
TGI (MDA-MB-468 breast): 0.288 µM
GI50 (SF-295 CNS): 2.02 µM
TGI (SF-295 CNS): 23.4 µM
GI50 (UACC-257 melanoma): 19.6 µM
TGI (UACC-257 melanoma): 54.5 µM
GI50 (PC-3 prostate): 11.7 µM
TGI (PC-3 prostate): 24.7 µM
GI50 (DU-145 prostate): 10.7 µM
TGI (DU-145 prostate): 26.2 µM
GI50 (UO-31 renal): 14 µM
TGI (UO-31 renal): 27.7 µM
GI50 (SN12C renal): 11.1 µM
TGI (SN12C renal): 26.4 µM
GI50 (HOP-92 NSCLC): 10.4 µM
TGI (HOP-92 NSCLC): 22.9 µM
GI50 (HT29 colon): 4.21 µM
TGI (HT29 colon): 17.1 µM
GI50 (IGROV1 ovarian): 13.4 µM
TGI (IGROV1 ovarian): 27.6 µM
GI50 (OVCAR-4 ovarian): 16.6 µM
TGI (OVCAR-4 ovarian): 58.5 µM
GI50 (K-562 leukemia): 0.313 µM
TGI (K-562 leukemia): 1.27 µM
GI50 (HCT-15 colon): 5.24 µM
TGI (HCT-15 colon): 21.3 µM
GI50 (HL-60(TB) leukemia): 0.397 µM
TGI (HL-60(TB) leukemia): 1.53 µM
GI50 (M14 melanoma): 0.381 µM
TGI (M14 melanoma): 21.4 µM
GI50 (LOX IMVI melanoma): 10.3 µM
TGI (LOX IMVI melanoma): 22.1 µM
GI50 (SK-OV-3 ovarian): 11.5 µM
TGI (SK-OV-3 ovarian): 26.3 µM
GI50 (TK-10 renal): 13.3 µM
TGI (TK-10 renal): 31.3 µM
GI50 (A549 NSCLC): 8.56 µM
TGI (A549 NSCLC): 24.2 µM
GI50 (HS 578T breast): 0.0962 µM
TGI (HS 578T breast): 17.9 µM
GI50 (HCC-2998 colon): 16 µM
TGI (HCC-2998 colon): 29.7 µM
GI50 (SK-MEL-28 melanoma): 15.7 µM
TGI (SK-MEL-28 melanoma): 61.1 µM
GI50 (OVCAR-8 ovarian): 0.46 µM
TGI (OVCAR-8 ovarian): 20.3 µM
GI50 (COLO 205 colon): 0.609 µM
TGI (COLO 205 colon): 21.7 µM
GI50 (MDA-MB-231 breast): 11.7 µM
TGI (MDA-MB-231 breast): 31.3 µM
GI50 (SNB-19 CNS): 12.1 µM
TGI (SNB-19 CNS): 29.6 µM
GI50 (NCI-H23 lung): 0.562 µM
TGI (NCI-H23 lung): 20.8 µM
GI50 (NCI-H322M lung): 16.5 µM
TGI (NCI-H322M lung): 32.6 µM
GI50 (EKVX NSCLC): 10.1 µM
TGI (EKVX NSCLC): 24.5 µM
GI50 (SF-268 CNS): 0.3 µM
TGI (SF-268 CNS): 28 µM
GI50 (A498 renal): 11.6 µM
TGI (A498 renal): 25 µM
GI50 (HOP-62 NSCLC): 1.89 µM
TGI (HOP-62 NSCLC): 20.2 µM
GI50 (CAKI-1 renal): 11.3 µM
TGI (CAKI-1 renal): 25.5 µM
GI50 (MOLT-4 leukemia): 0.0886 µM
TGI (MOLT-4 leukemia): 1.05 µM
GI50 (SR leukemia): 0.0417 µM
TGI (SR leukemia): 0.105 µM
GI50 (RXF 393 renal): 0.358 µM
TGI (RXF 393 renal): 12.3 µM
GI50 (NCI-H226 lung): 3.06 µM
TGI (NCI-H226 lung): 20.1 µM
GI50 (MALME-3M melanoma): 18.2 µM
TGI (MALME-3M melanoma): 37.4 µM
GI50 (SF-539 CNS): 3.09 µM
TGI (SF-539 CNS): 20.6 µM
